Read-outs that look alike come from different tables or passages of the source. Where a SMILES comes first, the peptide text is derived from it. Bridges are numbered along the chain shown (N, C = ends). [ ]: non-standard residue; d: D form. The star is where a group is joined. hPhe(3-Cl-4-CF3) = N[C@@H](CCc1ccc(C(F)(F)F)c(Cl)c1)C(=O)O; NPrPhe(4-CF3) = CCCN[C@@H](Cc1ccc(C(F)(F)F)cc1)C(=O)O; NMeGly(cPent) = CN[C@H](C(=O)O)C1CCCC1; Pro(4,4-F2) = O=C(O)[C@@H]1CC(F)(F)CN1; NMeD = CN[C@@H](CC(=O)O)C(=O)O; NMeL = CN[C@@H](CC(C)C)C(=O)O; Azetidin(1-yl) = C1CN(*)C1; Morpholide = C1CN(*)CCO1; Ac5c = NC1(C(=O)O)CCCC1; Sar = CNCC(=O)O
Assays:
[1] = molecular target: GDP-bound HRAS wild-type protein (Homo sapiens, UniProt P01112); test: Binding to HRAS by surface plasmon resonance (SPR), Single Cycle Kinetics
[2] = molecular target: GDP-bound KRAS wild-type protein (Homo sapiens, UniProt P01116); test: Binding to KRAS by surface plasmon resonance (SPR), Single Cycle Kinetics; conditions: GDP-bound KRAS wild-type protein, read-out: KRAS KD
[3] = molecular target: GDP-bound NRAS wild-type protein (Homo sapiens, UniProt P01111); test: Binding to NRAS by surface plasmon resonance (SPR), Single Cycle Kinetics
[4] = SPR, GDP-bound HRAS wild-type protein vs GDP-bound KRAS wild-type protein
[5] = SPR, GDP-bound NRAS wild-type protein vs GDP-bound KRAS wild-type protein
[6] = SPR Single Cycle Kinetics, 1:1 binding model
[7] = SPR, GDP-bound HRAS wild-type protein vs GDP-bound KRAS wild-type protein, KD ratio class
[8] = SPR, Single Cycle Kinetics, 1:1 binding model
[9] = SPR, GDP-bound NRAS wild-type protein vs GDP-bound KRAS wild-type protein, KD ratio class

Sequence of GDP-bound KRAS wild-type protein (P01116 whole entry): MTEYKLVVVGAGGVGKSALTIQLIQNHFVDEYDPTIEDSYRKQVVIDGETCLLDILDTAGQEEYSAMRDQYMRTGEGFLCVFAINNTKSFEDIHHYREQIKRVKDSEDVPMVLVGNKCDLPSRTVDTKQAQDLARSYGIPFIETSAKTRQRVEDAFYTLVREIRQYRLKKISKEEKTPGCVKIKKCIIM
Sequence of GDP-bound HRAS wild-type protein (P01112 whole entry): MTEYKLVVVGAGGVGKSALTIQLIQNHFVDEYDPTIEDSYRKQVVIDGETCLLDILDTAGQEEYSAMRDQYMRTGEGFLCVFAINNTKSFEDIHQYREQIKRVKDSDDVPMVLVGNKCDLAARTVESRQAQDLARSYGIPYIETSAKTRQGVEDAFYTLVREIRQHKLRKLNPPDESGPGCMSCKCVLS
Sequence of GDP-bound NRAS wild-type protein (P01111 whole entry): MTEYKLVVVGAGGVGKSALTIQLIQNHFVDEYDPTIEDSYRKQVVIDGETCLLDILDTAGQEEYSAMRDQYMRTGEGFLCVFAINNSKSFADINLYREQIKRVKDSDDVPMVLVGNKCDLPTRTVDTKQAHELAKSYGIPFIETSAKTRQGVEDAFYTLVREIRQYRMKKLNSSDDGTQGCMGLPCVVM

SMILES	HRAS/KRAS (ratio of KD value for HRAS to KD value for KRAS) [1, 4]	Kd ([2]; SPR, Single Cycle Kinetics) [nM]	NRAS/KRAS (ratio of KD value for NRAS to KD value for KRAS) [3, 5]	Kd [2, 6] [nM]	other results
CCC[C@H]1C(=O)N[C@@H]([C@@H](C)CC)C(=O)N(C)CC(=O)N(C)[C@H]2C/C=C\CCN(C2=O)[C@@H](Cc2ccc(C(F)(F)F)cc2)C(=O)N(C)CC(=O)N[C@@H](CCc2ccc(C(F)(F)F)c(Cl)c2)C(=O)N2C[C@H](OCC)C[C@H]2C(=O)NC2(CC(C)(C)C2)C(=O)N(C)[C@@H](CC(C)C)C(=O)N(C)[C@H](C(=O)N(C)C)CC(=O)N1C [PP2977]	A (a compound having 10 or more and less than 20 is denoted as A)	0.3	A (a compound having 10 or more and less than 20 is denoted as A)	–	–
CCO[C@@H]1C[C@H]2C(=O)NC3(CCC3)C(=O)N(C)[C@@H](C(CC)CC)C(=O)N(C)[C@H](C(=O)N3CCCC3)CC(=O)N(C)[C@H]3CCCC/C=C/c4ccc(cc4)C[C@@H](C(=O)N(C)CC(=O)N[C@@H](CCc4ccc(Cl)c(Cl)c4)C(=O)N2C1)N1CC/C=C\C[C@@H](C1=O)N(C)C(=O)CN(C)C(=O)[C@H]([C@@H](C)CC)NC3=O [PP3047, (1S,7S,11R,13S,19S,22S,26S,29S,35S,37Z,47E)-7-[2-(3,4-dichlorophenyl)ethyl]-11-ethoxy-19-(1-ethylpropyl)-3,18,21,25,31,34-hexamethyl-29-[(1S)-1-methylpropyl]-22-(pyrrolidine-1-carbonyl)spiro[3,6,9,15,18,21,25,28,31,34,41-undecazapentacyclo[24.15.11.2^43,46.1^35,41.0^9,13]pentapentaconta-37,43(54),44,46(53),47-pentaene-16,1′-cyclobutane]-2,5,8,14,17,20,24,27,30,33,55-undecone]	A (a compound having 10 or more and less than 20 is denoted as A)	0.18	AA (a compound having 20 or more is denoted as AA)	–	–
CCO[C@@H]1C[C@H]2C(=O)NC3(CC(C)(C)C3)C(=O)N(C)[C@@H](C(CC)CC)C(=O)N(C)[C@H](C(=O)N3CCCC3)CC(=O)N(C)[C@@H](COC)C(=O)N[C@@H]([C@@H](C)CC)C(=O)N(C)CC(=O)N(C)[C@H]3C/C=C\CCN(C3=O)[C@@H](Cc3ccc(C)cc3)C(=O)N(C)CC(=O)N[C@@H](CCc3ccc(C(F)(F)F)c(Cl)c3)C(=O)N2C1 [PP2144]	A (a compound having 10 or more and less than 20 is denoted as A)	0.48	AA (a compound having 20 or more is denoted as AA)	–	–
CCCN1C(=O)CN(C)C(=O)CN(C)C(=O)[C@H]([C@@H](C)CC)NC(=O)[C@H](CC(C)C)N(C)C(=O)C[C@@H](C(=O)N2CCC2)N(C)C(=O)[C@H](C2CCCC2)N(C)C(=O)C2(CCCC2)NC(=O)[C@@H]2CCCN2C(=O)[C@H](CCc2ccc(C(F)(F)F)c(Cl)c2)NC(=O)CN(C)C(=O)[C@@H]1Cc1ccc(C(F)(F)F)cc1 [PP0172] ([NMeL]I[Sar][Sar][NPrPhe(4-CF3)][Sar][hPhe(3-Cl-4-CF3)]P[Ac5c][NMeGly(cPent)][NMeD]-{Azetidin(1-yl)}; lactam N-11)	C (A compound having a KD ratio of 0.1 or more and less than 3 is denoted as C)	–	B (a compound having 3 or more and less than 10 is denoted as B)	0.13	–
CCC[C@H]1C(=O)N[C@@H]([C@@H](C)CC)C(=O)N(C)CC(=O)N(C)[C@H]2C/C=C\CCN(C2=O)[C@@H](Cc2ccc(C(F)(F)F)cc2)C(=O)N(C)CC(=O)N[C@@H](CCc2ccc(Cl)c(OC)c2)C(=O)N2C[C@H](OCC)C[C@H]2C(=O)NC2(CC(C)(C)C2)C(=O)N(C)[C@@H](C2CCCC2)C(=O)N(C)[C@H](C(=O)N(C)C)CC(=O)N1C [PP2788]	–	–	–	0.45	HRAS/KRAS (ratio of KD value with respect to GDP-bound HRAS wild-type protein to KD value with respect to KRAS) ([1]; SPR KD ratio HRAS/KRAS, class symbols): A (a compound having 10 or more and less than 20 is denoted as A); NRAS/KRAS (ratio of KD value with respect to GDP-bound NRAS wild-type protein to KD value with respect to KRAS) ([3]; SPR KD ratio NRAS/KRAS, class symbols): A (a compound having 10 or more and less than 20 is denoted as A)
CCCN1C(=O)CN(C)C(=O)CN(C)C(=O)[C@H]([C@@H](C)CC)NC(=O)[C@H](CC(C)C)N(C)C(=O)C[C@@H](C(=O)N2CCOCC2)NC(=O)[C@H](C2CCCC2)N(C)C(=O)C2(CCCC2)NC(=O)[C@@H]2CC(F)(F)CN2C(=O)[C@H](CCc2ccc(C(F)(F)F)c(Cl)c2)NC(=O)CN(C)C(=O)[C@@H]1Cc1ccc(C(F)(F)F)cc1 [PP0321] ([NMeL]I[Sar][Sar][NPrPhe(4-CF3)][Sar][hPhe(3-Cl-4-CF3)][Pro(4,4-F2)][Ac5c][NMeGly(cPent)]D-Morpholide; lactam N-11)	B (a compound having 3 or more and less than 10 is denoted as B)	–	B (a compound having 3 or more and less than 10 is denoted as B)	1	–
CCO[C@@H]1C[C@H]2C(=O)NC3(CCC3)C(=O)N(C)[C@@H](C3CCCC3)C(=O)N(C)[C@H](C(=O)N(C)CC)CC(=O)N(C)[C@@H](CC3CC3)C(=O)N[C@@H]([C@@H](C)CC)C(=O)N(C)CC(=O)N(C)[C@H]3C/C=C\CCN(C3=O)[C@@H](Cc3ccc(C(F)(F)F)cc3)C(=O)N(C)CC(=O)N[C@@H](CCc3cc(F)c(C(F)(F)F)c(F)c3)C(=O)N2C1 [PP1301]	–	–	–	–	HRAS/KRAS (ratio of KD value for HRAS to KD value for KRAS) [1, 7]: A (a compound having 10 or more and less than 20 is denoted as A); Kd [2, 8]: 0.083 nM; NRAS/KRAS (ratio of KD value for NRAS to KD value for KRAS) [3, 9]: A (a compound having 10 or more and less than 20 is denoted as A)
CCCOC[C@H]1C(=O)N[C@@H]([C@@H](C)CC)C(=O)N2CCC[C@H]2C(=O)N(C)[C@H]2C/C=C\CCN(C2=O)[C@@H](Cc2ccc(C)cc2)C(=O)N(C)CC(=O)N[C@@H](CCc2ccc(C(F)(F)F)c(OC)c2)C(=O)N2C[C@H](OCC)C[C@H]2C(=O)N(C)C2(CCC2)C(=O)N(C)[C@@H](C2CCCC2)C(=O)N(C)[C@H](C(=O)N(C)C)CC(=O)N1C [PP2334]	B (a compound having 3 or more and less than 10 is denoted as B)	0.13	A (a compound having 10 or more and less than 20 is denoted as A)	–	–
CCO[C@@H]1C[C@H]2C(=O)NC3(CC(C)(C)C3)C(=O)N(C)[C@@H](C(CC)CC)C(=O)N(C)[C@H](C(=O)N3CCCC3)CC(=O)N(C)[C@@H](COC)C(=O)N[C@@H]([C@@H](C)CC)C(=O)N(C)CC(=O)N(C)[C@H]3C/C=C\CCN(C3=O)[C@@H](Cc3ccc(C(F)(F)F)cc3)C(=O)N(C)CC(=O)N[C@@H](CCc3ccc(C(F)(F)F)c(OC)c3)C(=O)N2C1 [PP2159]	A (a compound having 10 or more and less than 20 is denoted as A)	0.33	AA (a compound having 20 or more is denoted as AA)	–	–
CC[C@H](C)[C@@H]1NC(=O)[C@H](COC)N(C)C(=O)C[C@@H](C(=O)N2CCOCC2)N(C)C(=O)[C@H](C2CCCC2)N(C)C(=O)C2(CCC2)NC(=O)[C@@H]2CC(F)(F)CN2C(=O)[C@H](CCc2cc(F)c(C(F)(F)F)c(F)c2)NC(=O)CN(C)C(=O)[C@H](Cc2ccc(C(F)(F)F)cc2)N2CCCCC[C@@H](C2=O)N(C)C(=O)[C@@H]2CCN2C1=O [PP0866]	B (a compound having 3 or more and less than 10 is denoted as B)	0.53	B (a compound having 3 or more and less than 10 is denoted as B)	–	–
CCO[C@@H]1C[C@H]2C(=O)NC3(CCC3)C(=O)N(C)[C@@H](C3CCCC3)C(=O)N(C)[C@H](C(=O)N(C)CCOC)CC(=O)N(C)[C@@H](CC3CC3)C(=O)N[C@@H]([C@@H](C)CC)C(=O)N(C)CC(=O)N(C)[C@H]3C/C=C\CCN(C3=O)[C@@H](Cc3ccc(C(F)(F)F)cc3)C(=O)N(C)CC(=O)N[C@@H](CCc3ccc4sccc4c3)C(=O)N2C1 [PP1328]	–	–	–	–	HRAS/KRAS (ratio of KD value for HRAS to KD value for KRAS) [1, 7]: A (a compound having 10 or more and less than 20 is denoted as A); Kd [2, 8]: 0.56 nM; NRAS/KRAS (ratio of KD value for NRAS to KD value for KRAS) [3, 9]: A (a compound having 10 or more and less than 20 is denoted as A)
CCO[C@@H]1C[C@H]2C(=O)NC3(CCC3)C(=O)N(C)[C@@H](C3CCCC3)C(=O)N(CC)[C@H](C(=O)N(C)C)CC(=O)N(C)[C@@H](CC)C(=O)N[C@@H]([C@@H](C)CC)C(=O)N(C)CC(=O)N(C)[C@H]3CCCCN(C3=O)[C@@H](Cc3ccc(C(F)(F)F)cc3)C(=O)N(C)CC(=O)N[C@@H](CCc3cc(F)c(C(F)(F)F)c(F)c3)C(=O)N2C1 [PP0643]	–	–	–	0.074	HRAS/KRAS (ratio of KD value with respect to HRAS to KD value with respect to KRAS) [1, 4]: B (a compound having 3 or more and less than 10 is denoted as B); NRAS/KRAS (ratio of KD value with respect to NRAS to KD value with respect to KRAS) [3, 5]: C (A compound having a KD ratio of 0.1 or more and less than 3 is denoted as C)
CCC[C@H]1C(=O)N[C@@H]([C@@H](C)CC)C(=O)N(C)CC(=O)N(C)[C@H]2C/C=C\CCN(C2=O)[C@@H](Cc2ccc(C(F)(F)F)cc2)C(=O)N(C)CC(=O)N[C@@H](CCc2ccc(C(F)(F)F)c(Cl)c2)C(=O)N2C[C@@H](C)C[C@H]2C(=O)NC2(CC(C)(C)C2)C(=O)N(C)[C@@H](C2CCCC2)C(=O)N(C)[C@H](C(=O)N(C)C)CC(=O)N1C [PP2270]	B (a compound having 3 or more and less than 10 is denoted as B)	0.24	B (a compound having 3 or more and less than 10 is denoted as B)	–	–
